Experimental data reported in patent publication EP1984353B1, “AURORA KINASE MODULATORS AND METHOD OF USE” (Amgen, Inc, priority 2006, dated 2007).
Structures can show the parent of a compound that is named as a salt. Where two headings read alike, the source gives them in different places.

Tests used:
[1] = biological target: T1, AuroraA-TPX2 (Homo sapiens, UniProt O14965); test: AuroraA-TPX2 Homogeneous Time Resolved Fluorescent (HTRF) kinase assay; assay type: biochemical
T1 construct: 20 µL of AuroraA-TPX2 KD GST; GST
T1 sequence (O14965 133-383 limits assumed): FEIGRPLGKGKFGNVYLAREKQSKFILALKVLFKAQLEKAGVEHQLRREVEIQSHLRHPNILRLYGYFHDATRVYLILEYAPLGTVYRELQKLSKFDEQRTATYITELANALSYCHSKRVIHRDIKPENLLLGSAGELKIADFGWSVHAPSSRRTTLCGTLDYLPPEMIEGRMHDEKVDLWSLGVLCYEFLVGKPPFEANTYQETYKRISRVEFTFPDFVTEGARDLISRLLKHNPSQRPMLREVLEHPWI
T1 sequence (Q9ULW0 1-43 partner limits assumed): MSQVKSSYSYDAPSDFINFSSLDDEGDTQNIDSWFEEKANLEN
Procedure: AuroraA-TPX2-Homogeneous Time Resolved Fluorescent (HTRF) Kinase Assay:
The Aurora-A HTRF assay begins with Aurora-A in the presence of ATP phosphorylating the biotinylated peptide PLK. The reaction incubates for about 120 min. Detection reagents are added to quench the reaction. These agents stop the reaction by diluting out the enzyme and chelating the metals due to the presence of EDTA. After addition, the assay is incubated overnight to allow the detection reagents to equilibrate.
The final concentration of PLK is about 1 µM. […] Buffer conditions are as follows: 60mM HEPES pH 7.5, 25mM NaCl, 10mM MgCl, 2mM DTT, 0.05% BSA.
(§1) The assay is quenched and stopped with 160 µL, of detection reagent. Detection reagents are as follows: Buffer made of 50mM Tris, pH 7.5, 100mM NaCl, 3mM EDTA, 0.05% BSA, 0.1% Tween20. Added to this buffer prior to reading is Steptavidin allophycocyanin (SA-APC) at a final conc in the assay of 0.0005 mg/mL, and europilated anti-phosphoPLK Ab (Eu-anti-PLK) at a final conc of 0.02 nM.
The assay plate is read in either a Discovery or a RubyStar. The eu-anti-PLK is excited at 320 nm and emits at 615 nm to excite the SA-APC which in turn emits at 655 nm.

[2] = biological target: T2, AuroraB (Homo sapiens, UniProt Q96GD4); test: AuroraB Homogeneous Time Resolved Fluorescent (HTRF) kinase assay; assay type: biochemical
T2 construct: 20 µL of AuroraB FL His; His
T2 sequence (Q96GD4 whole entry): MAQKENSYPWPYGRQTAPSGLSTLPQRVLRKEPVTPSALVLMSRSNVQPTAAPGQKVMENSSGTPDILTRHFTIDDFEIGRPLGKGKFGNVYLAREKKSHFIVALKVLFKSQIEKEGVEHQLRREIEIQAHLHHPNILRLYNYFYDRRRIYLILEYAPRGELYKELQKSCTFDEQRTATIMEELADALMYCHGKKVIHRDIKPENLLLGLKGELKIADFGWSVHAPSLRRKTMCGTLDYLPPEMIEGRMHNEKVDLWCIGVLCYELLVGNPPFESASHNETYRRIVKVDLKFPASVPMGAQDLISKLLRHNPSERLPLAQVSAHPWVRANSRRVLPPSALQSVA
Procedure: AuroraB-Homogeneous Time Resolved Fluorescent (HTRF) Kinase Assay:
The AuroraB HTRF assay begins with AuroraB in the presence of ATP phosphorylating the biotinylated peptide Histone H3. The reaction incubates for about 90 min. the reaction is quentched by addition of detection reagents, which stop the reaction by diluting out the enzyme and chelating the metals due to the presence of EDTA. After addition, the assay is incubated for about 60 min to allow detection reagents to equilibrate.
The AuroraB HTRF assay comprises 1 µL of compound in 100% DMSO, 20 µL of ATP and biotinylated Histone H3, and 20 µL of AuroraB FL His for a final volume of 41 µL. The final concentration of Histone H3 is 0.1 µM. The final concentration of ATP is 23 µM (Km(app) = 23 µM+/-2.6) and the final concentration of AuroraB is 400 pM. Buffer conditions are as follows: 50mM HEPES pH 7.5, 5mM NaCl, 0.5mM MgCl, 0.5mM MnCl, 2mM DTT, 0.05% BSA.
as §1, with “µL” for “µL,”, “0.001” for “0.0005”, “anti-phosphoHistoneH3” for “anti-phosphoPLK”, “(Eu-anti-HisH3)” for “(Eu-anti-PLK)”, “0.064” for “0.02”
The assay plate is read in either a Discovery or a RubyStar. The eu-anti-HisH3 is excited at 320 nm and emits at 615 nm to excite the SA-APC which in turn emits at 655 nm. The ratio of SA-APC at 655 nm (excited due to close proximity to the Eu-anti-HisH3 because of phosphorylation of the peptide) to free Eu-anti-HisH3 at 615 nm will give substrate phosphorylation.

[3] = read-out: average inhibitory activity (IC50) in the Aurora kinase A HTRF assay
[4] = read-out: average activity in the Aurora kinase B HTRF assay
[5] = read-out: average activity in the Aurora kinase A HTRF assay
[6] = average, given as numbers, unit inferred, read-out: AurB_ _IC50_IP (Avg)
[7] = average, given as numbers, unit inferred, read-out: AurA/TP X2_ IC50_IP (Avg)
[8] = average, given as class symbols, read-out: AurB_ _IC50_IP (Avg)
[9] = average, given as class symbols, read-out: AurA/TP X2_ IC50_IP (Avg)

Row | IC50 [2, 4] | IC50 [1, 5] | IC50 [2, 8] | SMILES | also measured
1 |  |  | ≤ 100 nM | Nc1nccc(-c2ccccc2Oc2ccc(Nc3nnc(-c4ccccc4)c4ccccc34)cc2)n1 [compound 254, N-(4-((2-(2-amino-4-pyrimidinyl)phenyl)oxy)phenyl)-4-phenyl-1-phthalazinamine] | IC50 [1, 9]: ≤ 100 nM
2 |  |  | ≤ 100 nM | CNc1cc(-c2cccnc2Nc2ccc(Nc3nnc(-c4ccccc4)c4ccccc34)cc2)ncn1 [compound 255, N-(3-(6-(methylamino)-4-pyrimidinyl)-2-pyridinyl)-N'-(4-phenyl-1-phthalazinyl)-1,4-benzenediamine] | IC50 [1, 9]: 100 to 500 nM
3 |  |  | 500 to 2500 nM | Cc1csc(-c2cc(C)c(Nc3ccc(Oc4ncccc4-c4ccnc5c4CCCN5)cc3)nn2)n1 [compound 286, 4-methyl-6-(4-methyl-1,3-thiazol-2-yl)-N-(4-((3-(5,6,7,8-tetrahydro-1,8-naphthyridin-4-yl)-2-pyridinyl)oxy)phenyl)-3-pyridazinamine] | 
4 |  |  | 500 to 2500 nM | COc1ccc(CNc2cc(-c3ccccc3Oc3ncc(Nc4nnc(-c5ccccc5)c5ccccc45)cn3)ccn2)cc1 [compound 290, N-(2-((2-(2-(((4-(methyloxy)phenyl)methyl)amino)-4-pyridinyl)phenyl)oxy)-5-pyrimidinyl)-4-phenyl-1-phthalazinamine] | 
5 |  |  | ≤ 100 nM | c1ccc(-c2nnc(Nc3ccc(Oc4ncccc4-c4ccnc(N5CCC5)n4)cc3)c3ccccc23)cc1 [compound 294, N-(4-((3-(2-(1-azetidinyl)-4-pyrimidinyl)-2-pyridinyl)oxy)phenyl)-4-phenyl-1-phthalazinamine] | 
6 |  |  | ≤ 100 nM | Nc1nccc(-c2cccnc2Oc2ccc(Nc3nnc(N4CCC(CO)CC4)c4ccccc34)cc2)n1 [compound 353, (1-(4-((4-((3-(2-amino-4-pyrimidinyl)-2-pyridinyl)oxy)phenyl)amino)-1-phthalazinyl)-4-piperidinyl)methanol] | 
7 |  |  | 100 to 500 nM | C[C@H]1CN(c2nnc(Nc3ccc(Oc4ncccc4-c4ccnc(N)n4)cc3)c3ccccc23)CCN1 [compound 398, N-(4-((3-(2-amino-4-pyrimidinyl)-2-pyridinyl)oxy)phenyl)-4-((3S)-3-methyl-1-piperazinyl)-1-phthalazinamine] | 
8 |  |  | ≤ 100 nM | Nc1nccc(-c2cccnc2Oc2ccc(Nc3nnc(-c4cccc(CNCCO)c4)c4ccccc34)cc2)n1 [compound 413, 2-(((3-(4-((4-((3-(2-amino-4-pyrimidinyl)-2-pyridinyl)oxy)phenyl)amino)-1-phthalazinyl)phenyl)methyl)amino)ethanol] | 

The next lines start with the compound.

Row | SMILES | IC50 [2, 4] | IC50 [1, 5] | IC50 [2, 8] | also measured
9 | CNc1cc(-c2cccnc2Oc2ccc(Nc3nnc(-c4ccc(F)cc4)c4ccccc34)cn2)ccn1 [Example 60, 2-((5-((4-(4-fluorophenyl)-1-phthalazinyl)amino)-2-pyridinyl)oxy)-N-methyl-3,4'-bipyridin-2'-amine] |  |  |  | IC50 [1, 3]: < 500 nM
10 | c1ccc(-c2nnc(Nc3ccc(Oc4ncccc4-c4ccnc5[nH]ccc45)cc3)c3ccccc23)cc1 [Example 61, 4-phenyl-N-(4-((3-(1H-pyrrolo[2,3-b]pyridin-4-yl)-2-pyridinyl)oxy)phenyl)-1-phthalazinamine] |  |  |  | IC50 [1, 3]: < 500 nM
11 | Nc1nccc(-c2cccnc2Oc2ccc(Nc3nnc(N4CCCCC4)c4ccccc34)cc2)n1 [Example 67, N-(4-((3-(2-amino-4-pyrimidinyl)-2-pyridinyl)oxy)phenyl)-4-(1-piperidinyl)-1-phthalazinamine] |  |  |  | IC50 [1, 3]: < 500 nM
12 | CNc1nccc(-c2cccnc2Oc2ccc(Nc3nnc(N4CCCCC4)c4ccccc34)cn2)n1 [Example 68, N-(6-((3-(2-(methylamino)-4-pyrimidinyl)-2-pyridinyl)oxy)-3-pyridinyl)-4-(1-piperidinyl)-1-phthalazinamine] |  |  |  | IC50 [1, 3]: < 500 nM
13 | NC(=O)c1n[nH]cc1-c1cccnc1Oc1ccc(Nc2nnc(-c3ccccc3)c3ccccc23)cc1 [Example 241, 4-(2-(4-(4-phenylphthalazin-1-ylamino)phenoxy)pyridin-3-yl)-1H-pyrazole-3-carboxamide] | ≤ 1000 nM | ≤ 1000 nM |  | 
14 | CNc1nccc(-c2cccnc2Oc2ccc(Nc3nnc(-c4cc(Cl)cs4)c4ccccc34)cc2)n1 [Example 245, 4-(4-chlorothiophen-2-yl)-N-(4-(3-(2-(methylamino)pyrimidin-4-yl)pyridin-2-yloxy)phenyl)phthalazin-1-amine] | ≤ 1000 nM | ≤ 1000 nM |  | 
15 | c1ccc(-c2nnc(Nc3cnc(Oc4ccccc4-c4ccncc4)nc3)c3ccccc23)cc1 [Example 468, 4-Phenyl-N-(2-(2-(pyridin-4-yl)phenoxy)pyrimidin-5-yl)phthalazin-1-amine] | ≤ 100 nM | ≤ 100 nM |  | 
16 | Nc1ncc(F)c(-c2cccnc2Oc2ccc(Nc3nnc(-c4ccccc4)c4ccccc34)cc2)n1 [Example 469, N-(4-(3-(2-Amino-5-fluoropyrimidin-4-yl)pyridin-2-yloxy)phenyl)-4-phenylphthalazin-1-amine] | ≤ 100 nM | ≤ 100 nM |  | 
17 | COC(=O)c1cc(-c2ccccc2)nnc1Nc1ccc(Oc2ncccc2-c2ccnc(N)n2)cc1 [Example 470, methyl 3-((4-((3-(2-amino-4-pyrimidinyl)-2-pyridinyl)oxy)phenyl)amino)-6-phenyl-4-pyridazinecarboxylate] | ≤ 1000 nM | ≤ 1000 nM |  | 
18 | Nc1nccc(-c2cccnc2Oc2ccc(Nc3nnc(-c4ccc(CN5CCCC5)cc4)c4ccccc34)cc2)n1 [Example Method E, N-(4-(3-(2-aminopyrimidin-4-yl)pyridin-2-yloxy)phenyl)-4-(4-(pyrrolidin-1-ylmethyl)phenyl)phthalazin-1-amine] | ≤ 1000 nM | ≤ 1000 nM |  | 
19 | O=P(O)(O)OCCCNc1nccc(-c2cccnc2Oc2ccc(Nc3nnc(-c4ccccc4)c4ccccc34)cc2)n1 [Example Method F, 3-(4-(2-(4-(4-phenylphthalazin-1-ylamino)phenoxy)pyridin-3-yl)pyrimidin-2-ylamino)propyl dihydrogen phosphate dihydrochloride] | ≤ 100 nM | ≤ 100 nM |  | 
20 | Cc1cc(-c2nnc(Nc3ccc(Oc4ncccc4-c4ccnc(N)n4)cc3)c3ccccc23)sn1 [compound 251, N-(4-((3-(2-amino-4-pyrimidinyl)-2-pyridinyl)oxy)phenyl)-4-(3-methyl-5-isothiazolyl)-1-phthalazinamine] |  |  |  | IC50 [2, 6]: 0.4 nM; IC50 [1, 7]: 16 nM
21 | c1ccc(-c2nnc(Nc3ccc(Oc4ccccc4-c4ccncc4)cc3)c3ccccc23)cc1 [compound 252, 4-phenyl-N-(4-((2-(4-pyridinyl)phenyl)oxy)phenyl)-1-phthalazinamine] |  |  |  | IC50 [2, 6]: 660 nM; IC50 [1, 7]: 166 nM
22 | COc1cccc(OC)c1-c1nnc(Nc2ccc(Oc3ncccc3-c3ccnc(N)n3)cc2)c2ccccc12 [compound 253, N-(4-((3-(2-amino-4-pyrimidinyl)-2-pyridinyl)oxy)phenyl)-4-(2,6-bis(methyloxy)phenyl)-1-phthalazinamine] |  |  |  | IC50 [2, 6]: 472 nM; IC50 [1, 7]: 2320 nM
23 | Oc1nccc(-c2cccnc2Oc2ccc(Nc3nnc(-c4ccccc4)c4ccccc34)cc2)n1 [compound 325, 4-(2-((4-((4-phenyl-1-phthalazinyl)amino)phenyl)oxy)-3-pyridinyl)-2-pyrimidinol] |  |  |  | IC50 [1, 9]: 500 to 2500 nM
